Laboratory results reported in patent US11773067B2, “(Trifluoromethyl)pyrimidine-2-amine compounds” (Eli Lilly and Company, priority 2020, dated 2023).
Read-outs that look alike come from different tables or passages of the source. One block for each compound: values may come before it.

Assays:
human MrgX1 receptor = molecular target: T1, human MrgX1 receptor (Homo sapiens, UniProt Q96LB2); assay: IP1 Cellular Assay for EC50 Determination Against hMrgX1 by HTRF; assay type: cell-based; conditions: in presence of EC15 of BAM8-22; for EC50: HEK293 cells stably expressing hMrgX1, geometric mean (SEM, n), read-out: Relative EC50 (SEM, n)
T1 construct: expressed in transfected cells
T1 sequence (Q96LB2 whole entry): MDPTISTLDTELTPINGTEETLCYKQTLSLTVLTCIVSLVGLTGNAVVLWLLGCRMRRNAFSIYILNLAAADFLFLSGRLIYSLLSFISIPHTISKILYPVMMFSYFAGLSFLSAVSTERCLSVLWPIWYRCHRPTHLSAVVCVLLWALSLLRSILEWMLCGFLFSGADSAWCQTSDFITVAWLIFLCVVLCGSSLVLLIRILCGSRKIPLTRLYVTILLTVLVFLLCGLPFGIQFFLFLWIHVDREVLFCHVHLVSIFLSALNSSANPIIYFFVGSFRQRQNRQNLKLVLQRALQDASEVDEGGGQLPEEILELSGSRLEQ
Experimental: IP1 Cellular Assay for EC50 Determination Against hMrgX1 by HTRF
Cell plating: HEK293 cells stably expressing the recombinant human MrgX1 receptor are expanded in culture flasks (Corning, T150), using growth media containing DMEM with glutamine (GIBCO™, Cat. #11960-044) supplemented with 10% heat-inactivated FBS (HyClone™, Cat. #CH30073), 1% penicillin/streptomycin (HyClone™, Cat. #SV30010; 10,000 U/mL penicillin; 10,000 μg/mL streptomycin in 0.85% NaCl), 20 mM HEPES (GIBCO™, Cat. #15530122) and 0.3 mg/mL G418 (GIBCO™, Cat. #11811031). When cell monolayers achieve a level of 80-90% confluence, monolayers are washed once with 10 mL of DPBS (HyClone™, Cat. #14190-144), dissociated using TrypLE™ Express enzyme cell dissociation media (GIBCO™, Cat. #12605-010), and diluted by addition of 10 mL DPBS. Dissociated cells are transferred to a sterile 50 mL conical tube, pelleted by centrifugation at 300×g to remove the growth and dissociation media, and diluted to 1M cells/mL into DMEM for plating.
IP1 Potency and Efficacy Determination: Test compounds are dissolved in DMSO to a concentration of 10 mM and serially diluted in DMSO to obtain a 10-point concentration response stock dilution plate. Growth media is removed from the cell plate, and the stock 10-point dilution plate is diluted into media and stamped into the cell plate at a concentration 2× higher than the final test concentration of 30 μM maximum. The endogenous agonist […] (Tocris-BioScience® Cat. #1763) is diluted to the EC15, determined independently at a minimum of n=3, into the cell plate and incubated at room temperature for 120 min. Subsequently, half the volume each of anti-IP1 cryptate and d2-labeled IP1 in lysis buffer, supplied with the IP-One Gq Kit (CisBio Cat. #62IPAPEC) are added to the cell plate to initiate cell lysis, and incubated for 60 min at room temperature in the dark. At that point, fluorescence is determined at 620 and 665 nm (˜100 μs following laser excitation).
Data Analysis: Fluorescent ratios are determined as the ratio of the fluorescence emission at […] and converted to IP1 concentration, using the IP1 standard curve generated in a separate plate, following the manufacturer's instructions. The IP1 concentration is then plotted as a function of compound concentration. Potentiator potency (EC50) is defined as the compound concentration, in the presence of the EC15 of the endogenous agonist […], resulting in 50% of the increase in IP1 concentration achieved by a saturating concentration of […], and is determined by using Genedata software (GeneData AG, Basel Switzerland) fitting the following equation to the 10-point CRC, where y is the IP1 concentration determined for a given compound concentration, [L] denotes the concentration of test compound and Max is the maximum increase achieved by a saturating concentration of […]: Y=Max*[L]/(EC50+[L]) EC50 values are reported as the geometric mean in nM (SEM, n).

[1] = In Vivo Determination of Kp,uu,brain in Mice; parameters: species or system mouse; conditions: for Kp uu at 2 h / concentration at 2 h: male, mouse; for Kp uu at 2 h: C57Bl/6, brain/plasma; for concentration at 2 h: C57Bl/6, mouse, po
Excerpt: In Vivo Determination of Kp,uu,brain in Mice
Unbound brain-to-plasma partition coefficient (Kp,uu,brain) is one of the key pharmacokinetic parameter for evaluating a compound's ability to cross the blood-brain barrier (BBB). It is typically measured in pre-clinical species using the following methodology. Kp,uu,brain values indicate the fraction of free drug in plasma that partitions across the BBB.
Subjects: The subjects for these studies are 12 male C57Bl/6 mice (Envigo, Indianapolis, IN, USA) between 8-10 weeks old at time of test. Mice are housed in groups of 4 in high density plastic home cages. Food and water is available ad libitum. The rooms are maintained at 73° F. with 30-70% relative humidity and kept on a light/dark cycle of 0600-1800 h. Agent: The compound of Example 2 is prepared at 0.3, 1, and 3 mg/ml in the 1% HEC, 0.25% TWEEN®80, 0.05% DOWSIL™ vehicle in water. Prepared compound is sonicated in water bath for 30 min until a suspension is formed. Mice are dosed at 10 ml/kg for a respective 3, 10 or 30 mg/kg dose. Dosing and Tissue Collection: For this experiment, four mice per dosing group receive oral dosing of either: 3, 10, or 30 mg/kg of the compound of Example 2. Mice are euthanized at 2 h post-dosing via CO2 asphyxiation, plasma samples are collected via cardia puncture, and mouse brains removed, weighed, and frozen on dry ice. Blood samples are stored in EDTA tubes on wet ice and centrifuged at 15 k rpm for 10 min. Plasma is collected, plated in a 96-well plate, and frozen at −80° C.
Pharmacokinetic sampling: Plasma and brain samples obtained are analyzed for Example 2 using an LC-MS/MS method (Q2 Solutions, Indianapolis, IN, USA). Plasma samples are extracted using protein precipitation. The lower limit of quantification is 25 ng/mL, and the upper limit of quantification is 5000 ng/mL. Brain samples are homogenized, and the analyte is extracted using protein precipitation. The lower limit of quantification is 4 ng/g and the upper limit of quantification is 200000 ng/g.
Analysis and Results: Kp,uu,brain is calculated for each time point from the expression below where individual components are derived from a combination of in vitro and in vivo measurements carried out as described above:
[formula] where Ctotal,brain, Cu,brain, Ctotal,plasma, and Cu,plasma are total and unbound brain and plasma concentrations, and fu,brain and fu,plasma are fractions unbound in brain and plasma, respectively.

[2] = Plasma and brain homogenate protein binding by equilibrium dialysis; assay type: in vitro ADME, mouse
Experimental: Determination of plasma and brain protein binding: Mouse plasma and brain homogenate protein binding is determined in vitro using equilibrium dialysis, as described elsewhere [Zamek-Gliszczynski et al., J Pharm Sci, 101:1932-1940, 2012]. The results are reported as fraction unbound in plasma (fu,plasma) and brain (fu,brain) which are then utilized to calculate Kp,uu,brain as described below. Mouse fu,plasma and fu,brain of Example 2 are determined to be 0.0421 and 0.0181, respectively.

- EC50 (human MrgX1 receptor): 72 nM
Structure (SMILES): Nc1nc(Oc2c(F)cccc2F)cc(C(F)(F)F)n1 [Example 1, 4-(2,6-Difluorophenoxy)-6-(trifluoromethyl)pyrimidin-2-amine]

- Kp uu at 2 h ([1]; 3 mg/kg oral): 0.506 ± 0.107
- Kp uu at 2 h ([1]; 10 mg/kg oral): 0.586 ± 0.116
- Kp uu at 2 h ([1]; 30 mg/kg oral): 0.601 ± 0.0553
- concentration at 2 h ([1]; brain, 3 mg/kg, 3 mg/kg oral, read-out: Total brain conc. (Ctotal,brain) ± SD): 972 ± 353 nM
- concentration at 2 h ([1]; brain, 3 mg/kg, 3 mg/kg oral, using fu,brain 0.0181, read-out: Unbound brain conc. (Cu,brain) ± SD): 17.6 ± 6.39 nM
- concentration at 2 h ([1]; brain, 10 mg/kg, 10 mg/kg oral, read-out: Total brain conc. (Ctotal,brain) ± SD): 3900 ± 1800 nM
- concentration at 2 h ([1]; brain, 10 mg/kg, 10 mg/kg oral, using fu,brain 0.0181, read-out: Unbound brain conc. (Cu,brain) ± SD): 55.4 ± 32.5 nM
- concentration at 2 h ([1]; brain, 30 mg/kg, 30 mg/kg oral, read-out: Total brain conc. (Ctotal,brain) ± SD): 13700 ± 4200 nM
- concentration at 2 h ([1]; brain, 30 mg/kg, 30 mg/kg oral, using fu,brain 0.0181, read-out: Unbound brain conc. (Cu,brain) ± SD): 248 ± 75.9 nM
- concentration at 2 h ([1]; plasma, 3 mg/kg, 3 mg/kg oral, read-out: Total plasma conc. (Ctotal,plasma) ± SD): 809 ± 140 nM
- concentration at 2 h ([1]; plasma, 3 mg/kg, 3 mg/kg oral, using fu,plasma 0.0421, read-out: Unbound plasma conc. (Cu,plasma) ± SD): 34.1 ± 5.94 nM
- concentration at 2 h ([1]; plasma, 10 mg/kg, 10 mg/kg oral, read-out: Total plasma conc. (Ctotal,plasma) ± SD): 2770 ± 651 nM
- concentration at 2 h ([1]; plasma, 10 mg/kg, 10 mg/kg oral, using fu,plasma 0.0421, read-out: Unbound plasma conc. (Cu,plasma) ± SD): 117 ± 27.4 nM
- concentration at 2 h ([1]; plasma, 30 mg/kg, 30 mg/kg oral, read-out: Total plasma conc. (Ctotal,plasma) ± SD): 9700 ± 2410 nM
- concentration at 2 h ([1]; plasma, 30 mg/kg, 30 mg/kg oral, using fu,plasma 0.0421, read-out: Unbound plasma conc. (Cu,plasma) ± SD): 409 ± 101 nM
- fraction unbound ([2]; mouse brain homogenate, read-out: fraction unbound in brain (fu,brain)): 0.0181
- fraction unbound ([2]; mouse plasma, read-out: fraction unbound in plasma (fu,plasma)): 0.0421
- EC50 (human MrgX1 receptor): 61 nM
Structure (SMILES): Nc1nc(Oc2c(F)cc(F)cc2F)cc(C(F)(F)F)n1 [Example 2, 4-(2,4,6-Trifluorophenoxy)-6-(trifluoromethyl)pyrimidin-2-amine]
- blood brain barrier crossing / central penetrance ([1]; 2 h post-oral administration in mice): crosses the blood brain barrier and has central penetrance

- EC50 (human MrgX1 receptor): 104 nM
Structure (SMILES): N#Cc1cc(F)c(Oc2cc(C(F)(F)F)nc(N)n2)c(F)c1 [Example 3, 4-[2-Amino-6-(trifluoromethyl)pyrimidin-4-yl]oxy-3,5-difluoro-benzonitrile]

- EC50 (human MrgX1 receptor): 40 nM
Structure (SMILES): Cc1c(Oc2c(F)cc(F)cc2F)nc(N)nc1C(F)(F)F [Example 4, 5-Methyl-4-(trifluoromethyl)-6-(2,4,6-trifluorophenoxy)pyrimidin-2-amine]

- EC50 (human MrgX1 receptor): 82 nM
- Max (Mean ± SEM) (human MrgX1 receptor; maximum stimulation achieved in the assay): 120 nM
Structure (SMILES): Cc1c(Oc2c(F)cc(C#N)cc2F)nc(N)nc1C(F)(F)F [Example 5, 4-[2-Amino-5-methyl-6-(trifluoromethyl)pyrimidin-4-yl]oxy-3,5-difluoro-benzonitrile]

- EC50 (human MrgX1 receptor): 38 nM
Structure (SMILES): Cc1c(Oc2c(F)cccc2F)nc(N)nc1C(F)(F)F [Example 6, 4-(2,6-difluorophenoxy)-5-methyl-6-(trifluoromethyl)pyrimidin-2-amine]
